Measured values reported in ChEMBL document CHEMBL4257506, “Design, synthesis and antimicrobial activity of usnic acid derivatives” (2018).

Columns and labels:
Type in all cases: functional
Penicillium ochrochloron = test: Fungicidal activity against Penicillium ochrochloron ATCC 9112 by microdilution method
Talaromyces funiculosus = test: Fungicidal activity against Penicillium funiculosum ATCC 36839 by microdilution method
Penicillium cyclopium = test: Fungicidal activity against Penicillium verrucosum var. cyclopium food isolate by microdilution method
Aspergillus versicolor = test: Fungicidal activity against Aspergillus versicolor ATCC 11730 by microdilution method
Aspergillus fumigatus = test: Fungicidal activity against Aspergillus fumigatus ATCC 1022 by microdilution method
Aspergillus ochraceus = test: Fungicidal activity against Aspergillus ochraceus by microdilution method
Aspergillus niger = test: Fungicidal activity against Aspergillus niger by microdilution method
Trichoderma viride = test: Fungicidal activity against Trichoderma viride IAM 5061 by microdilution method

Structure (SMILES): CC(=O)C1=C(O)C=C2Oc3c(C(C)=O)c(O)c(C)c(O)c3C2(C)C1=O (stereo not given)
- MFC (Penicillium ochrochloron): 8.8 ×10⁻² mmol/ml
- MFC (Talaromyces funiculosus): 8.8 ×10⁻² mmol/ml
- MFC (Penicillium cyclopium): 8.8 ×10⁻² mmol/ml
- MFC (Aspergillus versicolor): 8.8 ×10⁻² mmol/ml
- MFC (Aspergillus fumigatus): 69.8 ×10⁻² mmol/ml
- MFC (Aspergillus ochraceus): 4.4 ×10⁻² mmol/ml
- MFC (Aspergillus niger): 8.8 ×10⁻² mmol/ml
- MFC (Trichoderma viride): 4.4 ×10⁻² mmol/ml

Structure (SMILES): COCCc1noc(CCN/C(C)=C2\C(=O)C=C3Oc4c(C(C)=O)c(O)c(C)c(O)c4[C@@]3(C)C2=O)n1
- MFC (Penicillium ochrochloron): 4.02 ×10⁻² mmol/ml
- MFC (Talaromyces funiculosus): 4.02 ×10⁻² mmol/ml
- MFC (Penicillium cyclopium): 4.02 ×10⁻² mmol/ml
- MFC (Aspergillus versicolor): 4.02 ×10⁻² mmol/ml
- MFC (Aspergillus fumigatus): 4.02 ×10⁻² mmol/ml
- MFC (Aspergillus ochraceus): 2.01 ×10⁻² mmol/ml
- MFC (Aspergillus niger): 4.02 ×10⁻² mmol/ml
- MFC (Trichoderma viride): 2.01 ×10⁻² mmol/ml

Structure (SMILES): c1ccc(-c2ccc(C(c3ccccc3)n3ccnc3)cc2)cc1 (stereo not given) [BIFONAZOLE]
- MFC (Penicillium ochrochloron): 64 ×10⁻² mmol/ml
- MFC (Talaromyces funiculosus): 80 ×10⁻² mmol/ml
- MFC (Penicillium cyclopium): 48 ×10⁻² mmol/ml
- MFC (Aspergillus versicolor): 64 ×10⁻² mmol/ml
- MFC (Aspergillus fumigatus): 64 ×10⁻² mmol/ml
- MFC (Aspergillus ochraceus): 80 ×10⁻² mmol/ml
- MFC (Aspergillus niger): 64 ×10⁻² mmol/ml
- MFC (Trichoderma viride): 80 ×10⁻² mmol/ml

Structure (SMILES): CC(=O)c1c(O)c(C)c(O)c2c1OC1=CC(=O)/C(=C(/C)NCC(=O)NC(CO)C(=O)O)C(=O)[C@@]12C (stereo not given in full)
- MFC (Penicillium ochrochloron): 3.69 ×10⁻² mmol/ml
- MFC (Talaromyces funiculosus): 3.69 ×10⁻² mmol/ml
- MFC (Penicillium cyclopium): 3.69 ×10⁻² mmol/ml
- MFC (Aspergillus versicolor): 3.69 ×10⁻² mmol/ml
- MFC (Aspergillus fumigatus): 3.69 ×10⁻² mmol/ml
- MFC (Aspergillus ochraceus): 3.69 ×10⁻² mmol/ml
- MFC (Aspergillus niger): 3.69 ×10⁻² mmol/ml
- MFC (Trichoderma viride): 1.84 ×10⁻² mmol/ml

Structure (SMILES): CC(=O)c1c(O)c(C)c(O)c2c1OC1=CC(=O)/C(=C(/C)NCCc3nc(C)no3)C(=O)[C@@]12C
- MFC (Penicillium ochrochloron): 3.73 ×10⁻² mmol/ml
- MFC (Talaromyces funiculosus): 3.73 ×10⁻² mmol/ml
- MFC (Penicillium cyclopium): 3.73 ×10⁻² mmol/ml
- MFC (Aspergillus versicolor): 3.73 ×10⁻² mmol/ml
- MFC (Aspergillus fumigatus): 3.73 ×10⁻² mmol/ml
- MFC (Aspergillus ochraceus): 1.87 ×10⁻² mmol/ml
- MFC (Aspergillus niger): 3.73 ×10⁻² mmol/ml
- MFC (Trichoderma viride): 1.87 ×10⁻² mmol/ml

Structure (SMILES): CC(=O)c1c(O)c(C)c(O)c2c1OC1=CC(=O)/C(=C(/C)NCCS(N)(=O)=O)C(=O)[C@@]12C
- MFC (Penicillium ochrochloron): 7.1 ×10⁻² mmol/ml
- MFC (Talaromyces funiculosus): 7.1 ×10⁻² mmol/ml
- MFC (Penicillium cyclopium): 7.1 ×10⁻² mmol/ml
- MFC (Aspergillus versicolor): 7.1 ×10⁻² mmol/ml
- MFC (Aspergillus fumigatus): 7.1 ×10⁻² mmol/ml
- MFC (Aspergillus ochraceus): 3.55 ×10⁻² mmol/ml
- MFC (Aspergillus niger): 7.1 ×10⁻² mmol/ml
- MFC (Trichoderma viride): 3.55 ×10⁻² mmol/ml

Structure (SMILES): CC(=O)c1c(O)c(C)c(O)c2c1OC1=CC(=O)/C(=C(/C)NCCn3c(=O)c(O)nc4ccccc43)C(=O)[C@@]12C
- MFC (Penicillium ochrochloron): 3.64 ×10⁻² mmol/ml
- MFC (Talaromyces funiculosus): 3.64 ×10⁻² mmol/ml
- MFC (Penicillium cyclopium): 7.28 ×10⁻² mmol/ml
- MFC (Aspergillus versicolor): 3.64 ×10⁻² mmol/ml
- MFC (Aspergillus fumigatus): 3.64 ×10⁻² mmol/ml
- MFC (Aspergillus ochraceus): 1.82 ×10⁻² mmol/ml
- MFC (Aspergillus niger): 3.64 ×10⁻² mmol/ml
- MFC (Trichoderma viride): 1.82 ×10⁻² mmol/ml

Structure (SMILES): CC(=O)c1c(O)c(C)c(O)c2c1OC1=CC(=O)/C(=C(/C)NCC(=O)Nc3nccs3)C(=O)[C@@]12C
- MFC (Penicillium ochrochloron): 3.72 ×10⁻² mmol/ml
- MFC (Talaromyces funiculosus): 3.72 ×10⁻² mmol/ml
- MFC (Penicillium cyclopium): 3.72 ×10⁻² mmol/ml
- MFC (Aspergillus versicolor): 3.72 ×10⁻² mmol/ml
- MFC (Aspergillus fumigatus): 3.72 ×10⁻² mmol/ml
- MFC (Aspergillus ochraceus): 1.86 ×10⁻² mmol/ml
- MFC (Aspergillus niger): 1.86 ×10⁻² mmol/ml
- MFC (Trichoderma viride): 3.72 ×10⁻² mmol/ml

Structure (SMILES): COc1ccc2nc(NC(=O)CN/C(C)=C3\C(=O)C=C4Oc5c(C(C)=O)c(O)c(C)c(O)c5[C@@]4(C)C3=O)sc2c1
- MFC (Penicillium ochrochloron): 14.95 ×10⁻² mmol/ml
- MFC (Talaromyces funiculosus): 14.95 ×10⁻² mmol/ml
- MFC (Penicillium cyclopium): 14.95 ×10⁻² mmol/ml
- MFC (Aspergillus versicolor): 7.1 ×10⁻² mmol/ml
- MFC (Aspergillus fumigatus): 14.95 ×10⁻² mmol/ml
- MFC (Aspergillus ochraceus): 14.95 ×10⁻² mmol/ml
- MFC (Aspergillus niger): 14.95 ×10⁻² mmol/ml
- MFC (Trichoderma viride): 1.77 ×10⁻² mmol/ml

Structure (SMILES): CC(=O)c1c(O)c(C)c(O)c2c1OC1=CC(=O)/C(=C(/C)NCCc3ccc(O)c(O)c3)C(=O)[C@@]12C
- MFC (Penicillium ochrochloron): 4.17 ×10⁻² mmol/ml
- MFC (Talaromyces funiculosus): 4.17 ×10⁻² mmol/ml
- MFC (Penicillium cyclopium): 4.17 ×10⁻² mmol/ml
- MFC (Aspergillus versicolor): 4.17 ×10⁻² mmol/ml
- MFC (Aspergillus fumigatus): 4.17 ×10⁻² mmol/ml
- MFC (Aspergillus ochraceus): 2.09 ×10⁻² mmol/ml
- MFC (Aspergillus niger): 8.34 ×10⁻² mmol/ml
- MFC (Trichoderma viride): 2.09 ×10⁻² mmol/ml

Structure (SMILES): CC(=O)N1CCN(c2ccc(OCC3COC(Cn4ccnc4)(c4ccc(Cl)cc4Cl)O3)cc2)CC1 (stereo not given) [KETOCONAZOLE]
- MFC (Penicillium ochrochloron): 380 ×10⁻² mmol/ml
- MFC (Talaromyces funiculosus): 95 ×10⁻² mmol/ml
- MFC (Penicillium cyclopium): 94 ×10⁻² mmol/ml
- MFC (Aspergillus versicolor): 380 ×10⁻² mmol/ml
- MFC (Aspergillus fumigatus): 95 ×10⁻² mmol/ml
- MFC (Aspergillus ochraceus): 95 ×10⁻² mmol/ml
- MFC (Aspergillus niger): 95 ×10⁻² mmol/ml
- MFC (Trichoderma viride): 570 ×10⁻² mmol/ml

Structure (SMILES): CC(=O)NCCN/C(C)=C1\C(=O)C=C2Oc3c(C(C)=O)c(O)c(C)c(O)c3[C@@]2(C)C1=O
- MFC (Penicillium ochrochloron): 7.53 ×10⁻² mmol/ml
- MFC (Talaromyces funiculosus): 7.53 ×10⁻² mmol/ml
- MFC (Penicillium cyclopium): 15.05 ×10⁻² mmol/ml
- MFC (Aspergillus versicolor): 7.53 ×10⁻² mmol/ml
- MFC (Aspergillus fumigatus): 7.53 ×10⁻² mmol/ml
- MFC (Aspergillus ochraceus): 15.05 ×10⁻² mmol/ml
- MFC (Aspergillus niger): 15.05 ×10⁻² mmol/ml
- MFC (Trichoderma viride): 15.05 ×10⁻² mmol/ml

Structure (SMILES): CC(=O)c1c(O)c(C)c(O)c2c1OC1=CC(=O)/C(=C(/C)NCc3nc(N)n[nH]3)C(=O)[C@@]12C
- MFC (Penicillium ochrochloron): 4.41 ×10⁻² mmol/ml
- MFC (Talaromyces funiculosus): 4.41 ×10⁻² mmol/ml
- MFC (Penicillium cyclopium): 8.82 ×10⁻² mmol/ml
- MFC (Aspergillus versicolor): 4.41 ×10⁻² mmol/ml
- MFC (Aspergillus fumigatus): 4.41 ×10⁻² mmol/ml
- MFC (Aspergillus ochraceus): 8.82 ×10⁻² mmol/ml
- MFC (Aspergillus niger): 4.41 ×10⁻² mmol/ml
- MFC (Trichoderma viride): 8.82 ×10⁻² mmol/ml

Structure (SMILES): CC(=O)c1c(O)c(C)c(O)c2c1OC1=CC(=O)/C(=C(/C)NCc3noc(C4CCC(=O)N4)n3)C(=O)[C@@]12C (stereo not given in full)
- MFC (Penicillium ochrochloron): 1.77 ×10⁻² mmol/ml
- MFC (Talaromyces funiculosus): 1.77 ×10⁻² mmol/ml
- MFC (Penicillium cyclopium): 3.54 ×10⁻² mmol/ml
- MFC (Aspergillus versicolor): 3.54 ×10⁻² mmol/ml
- MFC (Aspergillus fumigatus): 3.54 ×10⁻² mmol/ml
- MFC (Aspergillus ochraceus): 3.54 ×10⁻² mmol/ml
- MFC (Aspergillus niger): 3.54 ×10⁻² mmol/ml
- MFC (Trichoderma viride): 1.77 ×10⁻² mmol/ml

Structure (SMILES): CC(=O)c1c(O)c(C)c(O)c2c1OC1=CC(=O)/C(=C(/C)NCCc3nnc(-c4ccccc4O)o3)C(=O)[C@@]12C
- MFC (Penicillium ochrochloron): 3.01 ×10⁻² mmol/ml
- MFC (Talaromyces funiculosus): 3.01 ×10⁻² mmol/ml
- MFC (Penicillium cyclopium): 3.01 ×10⁻² mmol/ml
- MFC (Aspergillus versicolor): 3.01 ×10⁻² mmol/ml
- MFC (Aspergillus fumigatus): 3.01 ×10⁻² mmol/ml
- MFC (Aspergillus ochraceus): 1.51 ×10⁻² mmol/ml
- MFC (Aspergillus niger): 6.02 ×10⁻² mmol/ml
- MFC (Trichoderma viride): 1.51 ×10⁻² mmol/ml
